Measured values as given in patent US20150352108A1, “AMINO-PYRIMIDINE COMPOUNDS AS INHIBITORS OF TBK1 AND/OR IKK EPSILON” (Alzheimer's Institute of America, priority 2009, published 2015).
Like-named read-outs stand apart in the source and are kept apart here.

Experiments:
IKKε = target: T1, IKKε (Homo sapiens, UniProt Q14164); assay: In-vitro IKKε kinase assay ([γ33]ATP filter-plate); assay type: biochemical
T1 construct: His-tag; made in house; host or cells: Sf9 insect cells
T1 sequence (Q14164 1-716): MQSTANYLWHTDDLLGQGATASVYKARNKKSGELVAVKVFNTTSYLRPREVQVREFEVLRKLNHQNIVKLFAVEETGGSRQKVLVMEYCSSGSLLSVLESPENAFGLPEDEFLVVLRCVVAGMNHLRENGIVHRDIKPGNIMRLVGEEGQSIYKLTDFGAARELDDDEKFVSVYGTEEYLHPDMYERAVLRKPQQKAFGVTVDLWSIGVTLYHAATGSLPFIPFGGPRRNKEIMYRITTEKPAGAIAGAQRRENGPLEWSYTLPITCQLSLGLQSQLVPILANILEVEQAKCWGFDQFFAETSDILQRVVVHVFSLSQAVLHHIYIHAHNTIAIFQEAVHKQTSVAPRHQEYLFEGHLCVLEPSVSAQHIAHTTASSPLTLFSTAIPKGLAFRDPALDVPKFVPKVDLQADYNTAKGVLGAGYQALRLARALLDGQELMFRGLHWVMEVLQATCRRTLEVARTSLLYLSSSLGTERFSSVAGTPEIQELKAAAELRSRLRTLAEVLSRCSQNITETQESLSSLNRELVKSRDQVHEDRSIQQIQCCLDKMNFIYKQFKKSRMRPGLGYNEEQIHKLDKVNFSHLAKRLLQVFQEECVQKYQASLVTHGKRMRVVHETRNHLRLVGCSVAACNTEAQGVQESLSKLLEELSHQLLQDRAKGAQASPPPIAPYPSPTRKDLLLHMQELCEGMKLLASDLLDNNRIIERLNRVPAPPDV
Summary of the method: (§1)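 Phosphorylation of casein or myelin basic protein was counted by P-81 filter capture after 30-45 min reactions stopped with phosphoric acid, with counts normalized to DMSO after background subtraction. ATP was twice Km: 60 μM for TBK1 and 32 μM for IKKε, plus [γ33]ATP. Sf9-expressed His-tag enzymes were used at normal/sensitized levels of 0.1/0.02 μg/ml (TBK1) and 0.1/0.015 μg/ml (IKKε).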

TBK1 = target: T2, TBK1 (Homo sapiens, UniProt Q9UHD2); assay: In-vitro TBK1 kinase assay ([γ33]ATP filter-plate); assay type: biochemical
T2 construct: His-tag; made in house; host or cells: Sf9 insect cells
T2 sequence (Q9UHD2 1-729): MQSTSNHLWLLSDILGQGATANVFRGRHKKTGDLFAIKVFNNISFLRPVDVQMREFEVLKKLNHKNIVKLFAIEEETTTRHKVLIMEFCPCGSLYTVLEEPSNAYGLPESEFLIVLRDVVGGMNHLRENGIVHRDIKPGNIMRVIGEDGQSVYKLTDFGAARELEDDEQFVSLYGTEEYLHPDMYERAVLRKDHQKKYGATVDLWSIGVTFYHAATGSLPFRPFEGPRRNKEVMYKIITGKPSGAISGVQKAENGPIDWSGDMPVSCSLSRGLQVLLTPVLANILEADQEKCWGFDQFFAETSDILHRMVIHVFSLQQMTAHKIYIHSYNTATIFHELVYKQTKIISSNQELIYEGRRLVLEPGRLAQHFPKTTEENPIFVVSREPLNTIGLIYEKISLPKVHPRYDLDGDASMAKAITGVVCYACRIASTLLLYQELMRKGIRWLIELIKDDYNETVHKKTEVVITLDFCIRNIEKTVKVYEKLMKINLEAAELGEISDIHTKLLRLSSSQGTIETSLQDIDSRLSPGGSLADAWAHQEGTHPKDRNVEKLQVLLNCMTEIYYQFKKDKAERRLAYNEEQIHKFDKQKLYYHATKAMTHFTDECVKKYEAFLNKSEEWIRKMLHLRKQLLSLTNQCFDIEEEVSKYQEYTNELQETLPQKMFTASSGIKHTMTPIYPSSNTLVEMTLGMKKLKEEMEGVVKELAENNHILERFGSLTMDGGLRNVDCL
Summary of the method: as §1

[1] = text bins, read-out: IC50 for inhibition of the kinase activity of IKKε
[2] = text bins, read-out: IC50 for inhibition of the kinase activity of TBK1

SMILES | IC50 (IKKε; [1]) [nM] | IC50 (TBK1; [2]) [nM] | IC50 (IKKε; Table 3, read-out: IKKε IC50) [nM] | IC50 (TBK1; Table 3, read-out: TBK1 IC50) [nM]
COc1cc(Nc2nccc(-c3ccc(OC4CCN(C(C)=O)CC4)c(C#N)c3)n2)cc(OC)c1OC [Example 34, 2-[(1-acetylpiperidin-4-yl)oxy]-5-{2-[(3,4,5-trimethoxyphenyl)amino]pyrimidin-4-yl}benzonitrile] | < 5 | < 10 |  | 
N#Cc1cc(-c2ccnc(Nc3ccc(N4CCOCC4)cc3)n2)ccc1OCC1CCN(C(=O)CO)CC1 [Example 233, 2-{[1-(hydroxyacetyl)piperidin-4-yl]methoxy}-5-(2-{[4-(morpholin-4-yl)phenyl]amino}pyrimidin-4-yl)benzonitrile] | 5 to 50 | < 10 |  | 
COc1cc(Nc2nccc(-c3ccc(OC4CCOCC4)c(C#N)c3)n2)ccc1S(=O)(=O)NCCCN(C)C [Example 237, 4-({4-[3-cyano-4-(tetrahydro-2H-pyran-4-yloxy)phenyl]pyrimidin-2-yl}amino)-N-[3-(dimethylamino)propyl]-2-methoxybenzene-sulfonamide] | < 5 | < 10 |  | 
CN(C)C(=O)CCNc1ccc(Nc2nccc(-c3ccc(OC4CCOCC4)c(C#N)c3)n2)cc1 [Example 209, N~3~-[4-({4-[3-cyano-4-(tetrahydro-2H-pyran-4-yloxy)phenyl]pyrimidin-2-yl}amino)phenyl]-N,N-dimethyl-beta-alaninamide] | 5 to 50 | < 10 |  | 
CS(=O)(=O)N1CCC(Oc2ccc(-c3ccnc(Nc4ccc(N5CCOCC5)cc4)n3)cc2C#N)C1 (stereo not shown) [Example 257, 2-{[1-(methylsulfonyl)pyrreolidin-3-yl]oxy}-5-(2-{[4-(morpholin-4-yl)phenyl]amino}pyrimidin-4-yl)benzonitrile] | 5 to 50 | 10 to 100 |  | 
COc1cc(Nc2nccc(-c3ccc(OC4CCOCC4)c(C#N)c3)n2)ccc1S(=O)(=O)N(C)CCCN(C)C [compound 397] | < 5 | < 10 |  | 
C[C@H](O)C(=O)N1CCC(Oc2ccc(-c3ccnc(Nc4ccc(CN5CCOCC5)cc4)n3)cc2C#N)CC1 [compound 509, 2-({1-[(2S)-2-hydroxypropanoyl]piperidin-4-yl}oxy)-5-(2-{[4-(morpholin-4-ylmethyl)phenyl]amino}pyrimidin-4-yl)benzonitrile] | 5 to 50 | < 10 |  | 
COc1ccc(Nc2nccc(-c3ccc(OC(C)C)c(C#N)c3)n2)cc1OC [Example 111, 5-{2-[(3,4-Dimethoxyphenyl)amino]pyrimidin-4-yl}-2-(propan-2-yloxy)benzonitrile] | < 5 | < 10 |  | 
CC(C)C(=O)Nc1ccc(-c2ccnc(Nc3cccc(CCO)c3)n2)cc1C#N [compound 450, N-[2-cyano-4-(2-{[3-(2-hydroxyethyl)phenyl]amino}pyrimidin-4-yl)phenyl]-2-methylpropanamide] | 5 to 50 | < 10 |  | 
N#Cc1cc(-c2ccnc(Nc3ccc(N4CCOCC4)cc3)n2)ccc1OC1CCCCC1 [Example 165, 2-(Cyclohexyloxy)-5-(2-{[4-(morpholin-4-yl)phenyl]amino}pyrimidin-4-yl)benzonitrile] | < 5 | < 10 |  | 
CCN(CC)CCN(CC)C(=O)Cc1ccc(Nc2nccc(-c3ccc(NC(=O)C(C)C)c(C#N)c3)n2)cc1 [compound 425, N-[2-cyano-4-(2-{[4-(2-{[2-(diethylamino)ethyl] (ethyl)amino}-2-oxoethyl)phenyl]amino}pyrimidin-4-yl)phenyl]-2-methylpropanamide] | 5 to 50 | < 10 |  | 
COc1ccc(-c2ccnc(Nc3cccc(NC(C)=O)c3)n2)cc1C#N [Example 70, N-(3-{[4-(3-Cyano-4-methoxyphenyl)pyrimidin-2-yl]amino}phenyl) acetamide] | 5 to 50 | 10 to 100 |  | 
Cc1ccc(-c2ccnc(Nc3ccc(N4CCOCC4)cc3)n2)cc1C#N [Example 269, 2-Methyl-5-(2-{[4-(morpholin-4-yl)phenyl]amino}pyrimidin-4-yl)benzonitrile] | 5 to 50 | < 10 |  | 
CCC(C)C(=O)Nc1ccc(-c2ccnc(Nc3ccc(N4CCOCC4)cc3)n2)cc1C#N (stereo not shown) [compound 417, N-[2-cyano-4-(2-{[4-(morpholin-4-yl)phenyl]amino}pyrimidin-4-yl)phenyl]-2-methylbutanamide] | 5 to 50 | < 10 |  | 
Cc1ccc(Nc2nccc(-c3ccc(OC4CCOCC4)c(C#N)c3)n2)cc1N1CCOCC1 [compound 590, 5-(2-{[4-Methyl-3-(morpholin-4-yl)phenyl]amino}pyrimidin-4-yl)-2-(tetrahydro-2H-pyran-4-yloxy)benzonitrile] | < 5 | < 10 | 0.3 | 1.2
COc1ccc(-c2ccnc(Nc3ccc(S(=O)(=O)NCCCO)c(OC)c3)n2)cc1C#N [compound 303, 4-{[4-(3-Cyano-4-methoxyphenyl)pyrimidin-2-yl]amino}-N-(3-hydroxypropyl)-2-methoxybenzene-sulfonamide] | 5 to 50 | 10 to 100 |  | 
CC(C)C(=O)Nc1ccc(-c2ccnc(Nc3cccc(CC(=O)N4CCN(C(C)C)CC4)c3)n2)cc1C#N [compound 423, N-(2-cyano-4-{2-[(3-{2-oxo-2-[4-(propan-2-yl)piperazin-1-yl]ethyl}phenyl)amino]pyrimidin-4-yl}phenyl)-2-methylpropanamide] | 5 to 50 | < 10 |  | 
COc1ccc(-c2ccnc(Nc3ccc(CN4CCOCC4)cc3)n2)cc1C#N [Example 251, 2-Methoxy-5-(2-{[4-(morpholin-4-ylmethyl)phenyl]amino}pyrimidin-4-yl)benzonitrile] | 5 to 50 | 10 to 100 |  | 
CN1CCN(S(=O)(=O)c2ccc(Nc3nccc(-c4ccc(OC5CCOCC5)c(C#N)c4)n3)cc2)CC1 [Example 284, 5-[2-({4-[(4-methylpiperazin-1-yl)sulfonyl]phenyl}amino)pyrimidin-4-yl]-2-(tetrahydro-2H-pyran-4-yloxy)benzonitrile] | 5 to 50 | < 10 |  | 
COc1cc(NC(=O)NCCO)cc(Nc2nccc(-c3ccc(OC4CCN(C(C)=O)CC4)c(C#N)c3)n2)c1 [compound 380] | 5 to 50 | 10 to 100 |  | 
COc1ccc(-c2ccnc(Nc3cccc(NC(=O)N4CC[C@@H](O)C4)c3)n2)cc1C#N [compound 372, (3R)-N-(3-{[4-(3-Cyano-4-methoxyphenyl)pyrimidin-2-yl]amino}phenyl)-3-hydroxypyrrolidine-1-carboxamide] | 5 to 50 | 10 to 100 |  | 
COc1ccc(-c2ccnc(Nc3cc(CN4CCOCC4)c(OC)c(OC)c3)n2)cc1C#N [Example 226, 5-(2-{[3,4-Dimethoxy-5-(morpholin-4-ylmethyl)phenyl]amino}pyrimidin-4-yl)-2-methoxybenzonitrile] | 5 to 50 | 10 to 100 |  | 
COc1ccc(-c2ccnc(Nc3ccc(N4CCOCC4)cc3)n2)cc1C#N [Example 266, 2-Methoxy-5-(2-{[4-(morpholin-4-yl)phenyl]amino}pyrimidin-4-yl)benzonitrile] | 5 to 50 | < 10 |  | 
COCCOC1CN(c2cc(Nc3nccc(-c4ccc(OC5CCOCC5)c(C#N)c4)n3)ccc2C)C1 [compound 596, 5-[2-({3-[3-(2-Methoxyethoxy)azetidin-1-yl]-4-methylphenyl}amino)pyrimidin-4-yl]-2-(tetrahydro-2H-pyran-4-yloxy)benzonitrile] | < 5 | < 10 | 0.7 | 1
